Assays:
[1] = target: T1, ATP-sensitive inward rectifier potassium channel 1 (Homo sapiens, UniProt P48048); assay: Inhibition of human ROMK expressed in HEK293 cells after 30 mins by thallium flux assay; format: cell-based
T1 sequence (P48048 whole entry): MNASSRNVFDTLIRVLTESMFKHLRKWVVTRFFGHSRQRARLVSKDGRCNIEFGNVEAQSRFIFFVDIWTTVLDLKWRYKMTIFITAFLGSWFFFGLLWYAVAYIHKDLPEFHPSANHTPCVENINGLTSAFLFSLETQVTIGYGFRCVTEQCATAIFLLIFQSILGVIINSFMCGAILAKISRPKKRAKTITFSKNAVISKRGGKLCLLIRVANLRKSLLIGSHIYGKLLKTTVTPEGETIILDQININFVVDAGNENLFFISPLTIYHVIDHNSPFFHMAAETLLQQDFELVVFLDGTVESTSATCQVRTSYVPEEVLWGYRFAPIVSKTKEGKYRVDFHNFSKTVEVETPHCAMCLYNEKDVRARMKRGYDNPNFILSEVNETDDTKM

Homo sapiens [2] = species on record: Homo sapiens; assay: Selectivity ratio of IC50 for human ERG expressed in HEK293 cells to IC50 for human ROMK expressed in HEK293 cells; format: cell-based
[3] = target: T2, Voltage-gated inwardly rectifying potassium channel KCNH2 (Homo sapiens, UniProt Q12809)
T2 sequence (Q12809 whole entry): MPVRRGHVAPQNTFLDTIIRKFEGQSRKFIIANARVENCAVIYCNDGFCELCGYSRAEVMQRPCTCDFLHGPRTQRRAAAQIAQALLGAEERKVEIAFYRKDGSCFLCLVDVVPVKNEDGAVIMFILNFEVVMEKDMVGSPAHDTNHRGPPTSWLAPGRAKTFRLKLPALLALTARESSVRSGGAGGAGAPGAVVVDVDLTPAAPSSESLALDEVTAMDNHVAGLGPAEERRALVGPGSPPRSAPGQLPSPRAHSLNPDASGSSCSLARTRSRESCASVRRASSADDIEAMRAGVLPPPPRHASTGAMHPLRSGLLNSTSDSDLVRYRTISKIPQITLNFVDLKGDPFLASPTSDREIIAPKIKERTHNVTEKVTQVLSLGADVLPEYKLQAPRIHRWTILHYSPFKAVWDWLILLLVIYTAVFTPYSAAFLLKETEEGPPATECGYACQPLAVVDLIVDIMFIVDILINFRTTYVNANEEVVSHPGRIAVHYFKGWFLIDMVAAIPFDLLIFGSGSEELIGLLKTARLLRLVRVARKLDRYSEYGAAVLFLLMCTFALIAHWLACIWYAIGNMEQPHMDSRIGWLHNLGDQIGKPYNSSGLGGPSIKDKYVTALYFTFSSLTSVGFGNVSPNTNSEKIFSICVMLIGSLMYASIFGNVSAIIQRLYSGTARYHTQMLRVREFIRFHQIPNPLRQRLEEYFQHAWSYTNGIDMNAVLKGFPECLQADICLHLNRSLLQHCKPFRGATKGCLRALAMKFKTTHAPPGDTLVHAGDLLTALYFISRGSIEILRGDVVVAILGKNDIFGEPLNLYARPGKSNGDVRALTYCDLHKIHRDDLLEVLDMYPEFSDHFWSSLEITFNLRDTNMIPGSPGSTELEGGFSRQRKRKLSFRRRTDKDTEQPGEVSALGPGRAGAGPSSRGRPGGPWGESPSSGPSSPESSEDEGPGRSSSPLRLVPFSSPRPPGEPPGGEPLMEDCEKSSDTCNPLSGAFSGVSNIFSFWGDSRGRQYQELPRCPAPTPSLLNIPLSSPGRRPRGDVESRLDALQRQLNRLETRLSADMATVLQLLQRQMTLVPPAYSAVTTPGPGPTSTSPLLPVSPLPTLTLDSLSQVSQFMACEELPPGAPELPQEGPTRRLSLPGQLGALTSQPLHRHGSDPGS

[4] = target: T1, ATP-sensitive inward rectifier potassium channel 1; assay: Inhibition of human ROMK expressed in CHO cells by electrophysiology method; format: cell-based
in vivo [5] = settings: rat, iv, 0.5 mg/kg
[6] = Drug uptake in plasma of rat spontaneous hypertensive model at 3 mg/kg, po measured after 3 days; format: ADME, organism-based; settings: spontaneously hypertensive rat
in vivo [7] = settings: rat
in vivo [8] = settings: rat, po, 1 mg/kg
Rattus norvegicus [9] = species on record: Rattus norvegicus; settings: in vivo, po, 1 mg/kg
Rattus norvegicus [10] = assay: Antihypertensive activity in rat spontaneous hypertensive model assessed as change in systolic blood pressure at 3 mg/kg, po measured after 3 days; format: functional
Rattus norvegicus [11] = species on record: Rattus norvegicus; settings: in vivo, iv, 0.5 mg/kg
[12] = target: T3, ATP-sensitive inward rectifier potassium channel 1 (Rattus norvegicus, UniProt P35560); assay: Inhibition of rat ROMK expressed in HEK293 cells after 30 mins by thallium flux assay; format: cell-based
T3 sequence (P35560 whole entry): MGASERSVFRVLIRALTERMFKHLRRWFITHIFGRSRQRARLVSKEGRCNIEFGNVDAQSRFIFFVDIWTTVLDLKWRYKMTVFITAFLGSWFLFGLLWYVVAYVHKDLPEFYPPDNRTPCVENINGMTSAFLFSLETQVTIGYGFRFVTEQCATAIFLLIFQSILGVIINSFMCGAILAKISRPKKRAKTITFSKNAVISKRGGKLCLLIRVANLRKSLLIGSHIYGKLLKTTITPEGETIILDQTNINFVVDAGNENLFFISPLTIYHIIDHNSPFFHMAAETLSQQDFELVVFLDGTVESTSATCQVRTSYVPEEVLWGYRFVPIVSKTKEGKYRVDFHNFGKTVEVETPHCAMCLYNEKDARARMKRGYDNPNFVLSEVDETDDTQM

[13] = Clearance in dog at 1 mg/kg, po or 0.5 mg/kg, iv; format: ADME, organism-based, Canis lupus familiaris; settings: in vivo
[14] = AUC (0 to t) in dog at 1 mg/kg, po; format: ADME, organism-based, Canis lupus familiaris; settings: in vivo
[15] = Half life in dog at 1 mg/kg, po or 0.5 mg/kg, iv; format: ADME, organism-based, Canis lupus familiaris; settings: in vivo
[16] = Oral bioavailability in dog at 1 mg/kg; format: ADME, organism-based, Canis lupus familiaris; settings: in vivo
[17] = Half life in rhesus monkey at 0.5 mg/kg, iv; format: ADME, organism-based, Macaca mulatta; settings: in vivo
[18] = Volume of distribution at steady state in rhesus monkey at 0.5 mg/kg, iv; format: ADME, organism-based, Macaca mulatta; settings: in vivo, read-out: Vdss
[19] = Volume of distribution at steady state in dog at 1 mg/kg, po or 0.5 mg/kg, iv; format: ADME, organism-based, Canis lupus familiaris; settings: in vivo, read-out: Vdss
Rhesus monkey = assay: AUC (0 to t) in rhesus monkey at 0.5 mg/kg, iv; format: ADME, organism-based, Macaca mulatta; settings: in vivo
Homo sapiens [20] = species on record: Homo sapiens; assay: Selectivity ratio of IC50 for human ERG to IC50 for human ROMK expressed in CHO cells by electrophysiology method; format: cell-based
[21] = target: T2, Voltage-gated inwardly rectifying potassium channel KCNH2; assay: Inhibition of human ERG by electrophysiology method
[22] = Volume of distribution at steady state in dog at 0.5 mg/kg, iv; format: ADME, organism-based, Canis lupus familiaris; settings: in vivo, read-out: Vdss
Canis familiaris = assay: AUC (0 to t) in dog at 0.5 mg/kg, iv; format: ADME, organism-based, Canis lupus familiaris; settings: in vivo
[23] = Half life in dog at 0.5 mg/kg, iv; format: ADME, organism-based, Canis lupus familiaris; settings: in vivo
in vivo [24] = settings: rat, po, 1 mg/kg; remark: listed apart in the source
Rattus norvegicus [25] = assay: Antihypertensive activity in rat spontaneous hypertensive model assessed as change in systolic blood pressure at 25 mg/kg, po measured after 3 days; format: functional
[26] = Drug excretion in urine of rat spontaneous hypertensive model at 3 mg/kg, po measured after 24 hrs; format: ADME, organism-based; settings: spontaneously hypertensive rat, read-out: Drug excretion
[27] = Drug excretion in urine of rat spontaneous hypertensive model at 3 mg/kg, po measured after 4 hrs; format: ADME, organism-based; settings: spontaneously hypertensive rat, read-out: Drug excretion

SMILES | IC50 ([1]; read-out: IC50) [µM] | Ratio IC50 (Homo sapiens [2]) | IC50 [3] [µM] | Vd (in vivo [5]) [L/kg] | half-life (in vivo [7]) [h] | bioavailability (in vivo [8]) [%] | AUC/dose (Rattus norvegicus [9]) [µM·kg·h/mg] | clearance (Rattus norvegicus [11]) [L/h/kg] | other results
Cc1c([C@@H](O)CN2CCC3(CC2)CCN(c2ccc([S+](C)[O-])nc2)C3)ccc2c1COC2=O (some centres undefined) | 6.4 |  |  |  |  |  |  |  | 
COc1ccc(N2CCC3(CCN(C[C@H](O)c4ccc5c(c4C)COC5=O)CC3)C2)cn1 | 1 | 303 | 3.3 |  |  |  |  |  | 
Cc1c([C@@H](O)CN2CCC3(CC2)CC(=O)N(c2cnc(S(C)(=O)=O)cn2)C3)ccc2c1COC2=O |  |  |  | 3.8 | 2.4 | 46 | 0.5 | 1.8 | IC50 [4]: 0.034 µM; concentration at 72 h [6]: 0.232 µM; Activity (Rattus norvegicus [10]): -16 mmHg; IC50 [12]: 0.06 µM
Cc1c([C@@H](O)CN2CCC3(CC2)CC(=O)N(c2ccc(S(C)(=O)=O)nc2)C3)ccc2c1COC2=O |  |  | > 60 |  |  |  |  |  | 
Cc1c([C@@H](O)CN2CCC3(CC2)CCN(c2cnc(S(C)(=O)=O)cn2)C3)ccc2c1COC2=O |  | 202 | 8.9 | 5.6 | 2.1 | 37 | 0.4 | 2.22 | clearance [13]: 2.52 L/h/kg; AUC(0-t) [14]: 750 nM·h; half-life [15]: 8.6 h; IC50 [4]: 0.037 µM; bioavailability [16]: 67%; half-life [17]: 1.8 h; Vd [18]: 7 L/kg; concentration at 72 h [6]: 0.078 µM; Vd [19]: 17.8 L/kg; AUCt (Rhesus monkey): 610 nM·h; Ratio IC50 (Homo sapiens [20]): 614; Activity (Rattus norvegicus [10]): -19.9 mmHg; IC50 [12]: 0.04 µM; IC50 [21]: 22.7 µM
CSc1ccc(N2CCC3(CCN(C[C@H](O)c4ccc5c(c4C)COC5=O)CC3)C2)cn1 | 0.901 |  |  |  |  |  |  |  | 
Cc1c([C@@H](O)CN2CCC3(CC2)CCN(c2ccc(S(C)(=O)=O)cn2)C3)ccc2c1COC2=O |  |  |  | 3.5 | 1.8 | 51 | 0.7 | 1.44 | Vd [22]: 6.9 L/kg; IC50 [4]: 0.029 µM; concentration at 72 h [6]: 0.162 µM; AUCt (Canis familiaris): 660 nM·h; Activity (Rattus norvegicus [10]): -20.3 mmHg; half-life [23]: 1.7 h; IC50 [12]: 0.06 µM
Cc1c([C@@H](O)CN2CCC3(CC2)CCN(c2ccc(C#N)cn2)C3)ccc2c1COC2=O |  |  |  | 4.7 | 3 | 100 | 2 | 1.16 | fraction unbound (in vivo [24]): 0.27
Cc1c([C@@H](O)CN2CCC3(CC2)CCN(c2ccc(C#N)nc2)C3)ccc2c1COC2=O |  | 13 | 1.2 |  |  |  |  |  | 
Cc1c([C@@H](O)CN2CCC3(CC2)CCN(c2ccc(C(C)(C)O)nc2)C3)ccc2c1COC2=O |  |  | 29 |  |  |  |  |  | IC50 ([1]; hek293): Not Active
Cc1c([C@@H](O)CN2CCC3(CC2)CCN(c2cncc(C#N)c2)C3)ccc2c1COC2=O | 0.01 |  |  |  |  |  |  |  | 
Cc1c([C@@H](O)CN2CCC3(CC2)CC(=O)N(c2ccc(S(C)(=O)=O)cn2)C3)ccc2c1COC2=O |  | 328 | 17.4 | 4.3 | 2.1 | 48 | 0.5 | 2.04 | IC50 [4]: 0.043 µM; concentration at 72 h [6]: 0.22 µM; Ratio IC50 (Homo sapiens [20]): 558; Activity (Rattus norvegicus [10]): -15.5 mmHg; IC50 [12]: 0.04 µM; IC50 [21]: 24 µM
Cc1c([C@@H](O)CN2CCC3(CC2)CC(=O)N(c2cncc(C#N)c2)C3)ccc2c1COC2=O | 0.01 | 180 | 1.8 |  |  |  |  |  | 
NS(=O)(=O)c1cc2c(cc1Cl)NCNS2(=O)=O [HYDROCHLOROTHIAZIDE] |  |  |  |  |  |  |  |  | Activity (Rattus norvegicus [25]): -10.5 mmHg
Cc1c([C@@H](O)CN2CCC3(CC2)CC(=O)N(c2ccc(C#N)cn2)C3)ccc2c1COC2=O | 0.01 | 180 | 1.8 |  |  |  |  |  | 
Cc1c([C@@H](O)CN2CCC3(CC2)CCN(c2ccc(S(C)(=O)=O)nc2)C3)ccc2c1COC2=O | 0.226 |  |  | 2.8 | 2 | 96 | 0.7 | 1.38 | concentration at 24 h [26]: 21.2 µM; IC50 [4]: 0.05 µM; concentration at 4 h [27]: 26.6 µM; concentration at 72 h [6]: 0.39 µM; Activity (Rattus norvegicus [10]): 0.1 mmHg; IC50 [12]: 0.24 µM
Cc1c([C@@H](O)CN2CCC3(CC2)CCN(c2ccc(C#N)cn2)CC3)ccc2c1COC2=O | 0.047 |  |  |  |  |  |  |  | 
Cc1nc(N2CCC3(CCN(C[C@H](O)c4ccc5c(c4C)COC5=O)CC3)C2)ccc1S(C)(=O)=O |  | 101 | 7.9 |  |  |  |  |  | 

— ChEMBL document CHEMBL4002630, “The design and synthesis of novel spirocyclic heterocyclic sulfone ROMK inhibitors as diuretics” (Bioorg Med Chem Lett, 2017)
